Data as given in PubChem BioAssay AID1963433 (Molecular Pharmacology Branch, DTP, NCI, 2024).
pIC50: −log10 of the molar value.

System: 772245-204-R-J1-PDC complex spheroid growth
Test: Anticancer human tumor 772245-204-R-J1-PDC patient-derived rhabdomyosarcoma cell line growth inhibition [Asc]
Conditions: for pIC50: curve of first compound; for viability, T/C: stronger effect = lower value; active means viability on the fitted dose curve at most 10% of control; inactive means the rest
Description: Multicellular complex tumor spheroid response to apoptosis pathway targeting inhibitors Alrizomadlin, Pelcitoclax, and Dasminapant in combination with a variety of drugs and investigational agents in selected tumor cell lines
The MDM2 inhibitor alrizomadlin, the Bcl-2/Bcl-xL inhibitor pelcitoclax, and the IAPs inhibitor dasminapant were evaluated both individually and in combination with standard of care and investigational anticancer small molecules within a complex spheroid model of solid tumors. . Complex spheroids include a stromal component modeled by human endothelial cells (HUVEC) and fibroblasts modeled by human mesenchymal stem cells (MSCs). The concentration ranges selected for each drug and investigational agent were based upon clinically achievable concentrations if the clinical Cmax of the agent was known.
Compounds. The drugs and investigational agents: alrizomadlin (APG-115; NSC831270), pelcitoclax (APG-1252; NSC835773), dasminapant (APG-1387;NSC834197), TAK-243 (NSC785004), copanlisib (NSC809693), olaparib (NSC753686), talazoparib (NSC767125), cobimetinib (NSC 768068), eltanexor (KPT-8602, NSC 794443), abemaciclib (NSC 768073), sotorasib (NSC818433), adagrasib (NSC 831453), MRTX-1133 (NSC 836407), Iadademestat (ORY1001, NSC 806812), and RMC-4630 (NSC839698), were obtained from the NCI Developmental Therapeutics Program Chemical Repository. The FDA-approved anticancer drug set is available from the Developmental Therapeutics Program at https://dtp.cancer.gov/organization/dscb/obtaining/available plates.htm. […] The stock solutions were prepared in dimethyl sulfoxide (DMSO, Sigma-Aldrich, St. Louis, MO, cat. D2650) at 800-fold the tested concentration and stored at -70 degrees C prior to their use. All drugs and investigational agents were tested over a range starting from a high concentration at or near the clinical Cmax and decreasing in half-log increments. If the clinical Cmax for an agent had not been determined, the highest concentration tested was 10 microM.
The patient-derived cancer (PDC) cell lines include five colon adenocarcinomas: 186277-243-T-J2-PDC, 616215-338-R-J1-PDC, 439559-082-T-J2-PDC, 463943-066-T-J2-PDC, and 519858-162-T-J1-PDC; three pancreatic carcinomas: 323965-272-R-J2-PDC, 521955-158-R6-J3-PDC, and 521955-158-R2-J5-PDC; two uterine sarcomas: 327498-152-R-J2-PDC and 993429-296-R-J1-PDC; two rhabdomyosarcomas: 755483-174-R-J1-PDC and 772245-204-R-J1-PDC; two soft tissue sarcomas: 126254-015-R-J1-PDC and 494315-158-R-J1-PDC; two malignant fibrous histiocytomas: 317291-083-R-J1-PDC and 596521-263-R-J1-PDC; two breast carcinomas: 171881-019-R-J1-PDC and 885512-296-R-J2-PDC; and one ovarian carcinoma: 6556581-035-R-J-PDC were obtained from the NCI PDMR, (https://pdmr.cancer.gov). The established cell lines HSSY-2 synovial sarcoma (RRID:CVCL 8719), SYO-1 synovial sarcoma (RRID:CVCL_7146), MPNST malignant peripheral neural sheath tumor were obtained from the Sloan Kettering Institute. The following established cell lines were purchased from the American Type Culture Collection (ATCC, Manassas, VA), Sor the received from the NCI repository:, PANC-1 pancreatic carcinoma (CRL-1469, RRID:CVCL_0480), OVCAR-5 ovarian carcinoma (RRID:CVCL_1628), OVCAR-8 ovarian carcinoma (RRID:CVCL_1629), , MCF-7 breast carcinoma (CRL-12584, RRID:CVCL_0031), MDA-MB-231 breast carcinoma (CRL-12532, RRID:CVCL_0062), NCI-H1876 small cell lung carcinoma (CRL-5902, RRID:CVCL_1503), NCI-H510A small cell lung carcinoma (HTB-184, RRID:CVCL_1565), NCI-H1417 (CRL-5869, RRID:CVCL_1469), and NCI-H196 small cell lung carcinoma (CRL-5823, RRID:CVCL_1509). Dr. Peter Houghton (Greehey Children's Cancer Research Institute, University of Texas Health Science Center, San Antonio, TX) provided Rh-18 rhabdomyosarcoma (RRID:CVCL_1659). Pooled donor human umbilical vein endothelial cells (HUVEC, Lonza, cat. CC-2519) and human mesenchymal stem cells (hMSC, Lonza, cat. PT-2501) were purchased from Lonza (Walkersville, MD).
Cell Culture. […]
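Further: compound exposure lasted seven days.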
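Wherever viability, T/C is given: 100% = DMSO vehicle control viability.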

O=C(c1cc(Cc2n[nH]c(=O)c3ccccc23)ccc1F)N1CCN(C(=O)C2CC2)CC1 + CCN1C(C(=O)NC23CCC(C(=O)O)(CC2)CC3)C(c2cccc(Cl)c2F)C2(C(=O)Nc3cc(Cl)ccc32)C12CCCCC2
inactive: viability, T/C (second compound 0.03 µM, first compound 0.0316 µM) 102% | viability, T/C (second compound 0.03 µM, first compound 0.1 µM) 113% | viability, T/C (second compound 0.03 µM, first compound 0.316 µM) 93.7% | viability, T/C (second compound 0.03 µM, first compound 1 µM) 95.2% | viability, T/C (second compound 0.03 µM, first compound 3.16 µM) 87.3% | viability, T/C (second compound 0.03 µM, first compound 10 µM) 70.1% | viability, T/C (second compound 0.0949 µM, first compound 0.0316 µM) 108% | viability, T/C (second compound 0.0949 µM, first compound 0.1 µM) 113% | viability, T/C (second compound 0.0949 µM, first compound 0.316 µM) 97.2% | viability, T/C (second compound 0.0949 µM, first compound 1 µM) 100% | viability, T/C (second compound 0.0949 µM, first compound 3.16 µM) 79.7% | viability, T/C (second compound 0.0949 µM, first compound 10 µM) 72% | viability, T/C (second compound 0.3 µM, first compound 0.0316 µM) 121% | viability, T/C (second compound 0.3 µM, first compound 0.1 µM) 115% | viability, T/C (second compound 0.3 µM, first compound 0.316 µM) 102% | viability, T/C (second compound 0.3 µM, first compound 1 µM) 93.1% | viability, T/C (second compound 0.3 µM, first compound 3.16 µM) 92% | viability, T/C (second compound 0.3 µM, first compound 10 µM) 69.2% | viability, T/C (second compound 0.949 µM, first compound 0.0316 µM) 101% | viability, T/C (second compound 0.949 µM, first compound 0.1 µM) 92.9% | viability, T/C (second compound 0.949 µM, first compound 0.316 µM) 99.6% | viability, T/C (second compound 0.949 µM, first compound 1 µM) 88.3% | viability, T/C (second compound 0.949 µM, first compound 3.16 µM) 73.3% | viability, T/C (second compound 0.949 µM, first compound 10 µM) 63.8% | viability, T/C (second compound 3 µM, first compound 0.0316 µM) 77.2% | viability, T/C (second compound 3 µM, first compound 0.1 µM) 80.4% | viability, T/C (second compound 3 µM, first compound 0.316 µM) 84.1% | viability, T/C (second compound 3 µM, first compound 1 µM) 74.7% | viability, T/C (second compound 3 µM, first compound 3.16 µM) 55.8% | viability, T/C (second compound 3 µM, first compound 10 µM) 62.5%
< 5.00: pIC50 (second compound 0.03 µM) | pIC50 (second compound 0.0949 µM) | pIC50 (second compound 0.3 µM) | pIC50 (second compound 0.949 µM) | pIC50 (second compound 3 µM)
